Data as given in PMC11409709, “Inhibition of DRP-1 mitochondrial mitophagy and fission by novel α-aminophosphonates bearing pyridine: synthesis, biological evaluations, and computer-aided design” (BMC Chemistry, 2024).
“Also recorded” adds a separate entry of the source. Like-named read-outs stand apart in the source and are kept apart here.

Key:
[1] = tested on: Candida albicans; assay: Disc diffusion, C. albicans; assay type: cell-based; settings: inhibition zone vs standard drug, 1 mg/mL, 24 h, 36 °C
Protocol: (§1) The produced compounds’ antimicrobial activity was evaluated using a panel of two gram-positive bacteria (Bacillus subtilis (#MTCC NO 441) and Staphylococcus aureus (#MTCC NO 96). as well as two Gram-negative bacteria (Pseudomonas aeruginosa (#MTCC NO 1688), Escherichia coli(#MTCC NO 452)). Two fungi [Candida albicans(#MTCC NO 183) and Aspergillus flavus(#MTCC NO 1344)] were used to assess the compounds' anti-fungal properties. Paper discs of Whatman filter paper with a standard size of […] were made, dissolved in DMSO, and then sterilized in an autoclave. A solution of 1 mg/mL was prepared for each drug separately. Paper discs soaked in the desired concentration of the complex solution were aseptically placed in Petri dishes containing nutrient agar media (20 g + 3 g of beef extract + 5 g of peptone) seeded with bacterial and fungal strains. After 24 h of incubation at 36 °C, the inhibitory zones in the petri dishes were measured. There were three copies of every treatment. Using the same protocol as previously described, the antifungal Clotrimazole and the common standard antibiotic Ciprofloxacin were also tested for antibacterial activity at the same concentrations and solvent combinations.

[2] = tested on: Aspergillus flavus; assay: Disc diffusion, A. flavus; assay type: cell-based; settings: inhibition zone vs standard drug, 1 mg/mL, 24 h, 36 °C
Protocol: as §1

[3] = tested on: Bacillus subtilis; assay: Disc diffusion, B. subtilis; assay type: cell-based; settings: inhibition zone vs standard drug, 1 mg/mL, 24 h, 36 °C
Protocol: as §1

[4] = tested on: Escherichia coli; assay: Disc diffusion, E. coli; assay type: cell-based; settings: inhibition zone vs standard drug, 1 mg/mL, 24 h, 36 °C
Protocol: as §1

[5] = DPPH radical scavenging; settings: for IC50: 0.1 mM DPPH in methanol, 30 min dark, 517 nm
Protocol: (§2) With slight modifications, the DPPH and ABTS methods were used to test the new phosphonate’s free radical scavenging activity. Briefly, one milliliter of a 0.1 mM DPPH in methanol solution and ABTS in distilled water were added to the newly synthesized compounds. For 30 min, the mixture was left in the dark. The synthetic compounds’ ability to scavenge free radicals was compared to that of L. Ascorbic acid. At 517 nm for DPPH and 734 nm for ABTS, optical density was recorded, and the concentration inhibition was computed.
(§3) The percentage of inhibition is equal to [(A control − A test)/A control] × 100, where A control represents the control absorbance and A test represents the test sample absorbance. It was established what sample concentration (IC50) produced 50% inhibition. Every experiment was conducted in triplicate, and the mean ± SE IC50 values were reported.

[6] = tested on: Staphylococcus aureus; assay: Disc diffusion, S. aureus; assay type: cell-based; settings: inhibition zone vs standard drug, 1 mg/mL, 24 h, 36 °C
Protocol: as §1

[7] = ABTS radical scavenging; settings: for IC50: 30 min dark, 734 nm
Protocol: as §2, §3

[8] = tested on: human lung fibroblast (WI-38); assay: MTT assay, WI-38 normal cells; assay type: cell-based; settings: 48 h
Source text: (§4) Mammary gland (MCF-7;# ATCC HTB-22), colorectal adenocarcinoma (Caco-2; # ATCC HTB-37), hepatocellular carcinoma (HepG-2; #ATCC HB-8065), and human lung fibroblast (WI-38; # ATCC CCL-75). The ATCC cell line was obtained via the Holding Company for Biological Products and Vaccines (VACSERA), Cairo, Egypt.
(§5) The MTT test was utilized to ascertain the phosphonate's inhibitory effects on cell growth utilizing the aforementioned cell lines. The basis of this colorimetric assay is the transformation of yellow tetrazolium bromide (MTT) by mitochondrial succinate dehydrogenase in living cells into a purple formazan derivative. 10% fetal bovine serum was added to RPMI-1640 media used to cultivate cell lines. At 37 °C in an incubator with 5% CO2, 100 units/mL of penicillin and 100 µg/mLof streptomycin were introduced as antibiotics. The cell lines were seeded at 1.0 × 10^4 cells/well in a 96-well plate and kept at 37 °C for 24 h with 5% CO2. Following incubation, the cells were subjected to several concentrations of newly synthesized phosphonates and left for 48 h incubation. 20 µL of a 5 mg/mL MTT solution was added and incubated for 4 h after the drug treatment lasted for 48 h. To dissolve the purple formazan produced in each well, 100 µL of dimethyl sulfoxide (DMSO) was applied. Using a plate reader (EXL 800, USA), the colorimetric test is measured and recorded at the absorbance of 570 nm. (A570 of treated samples/A570 of untreated sample) X 100 was used to compute the relative cell viability as a percentage.

[9] = tested on: Pseudomonas aeruginosa; assay: Disc diffusion, P. aeruginosa; assay type: cell-based; settings: inhibition zone vs standard drug, 1 mg/mL, 24 h, 36 °C
Protocol: as §1

[10] = tested on: colorectal adenocarcinoma (Caco-2); assay: MTT assay, Caco-2; assay type: cell-based, human; settings: for IC50: Homo sapiens, Caco-2, 48 h, read-out: Anti-cancer activity CaCo-2 (IC50), MTT, 48 h; for antitumor impact on Caco-2: MTT, 48 h, compared with DOX
Source text: as §4, §5

[11] = tested on: bacterial and fungal strains; assay: Disc diffusion, whole panel (result in words); assay type: cell-based; settings: 1 mg/mL
Protocol: as §1

[12] = tested on: hepatocellular carcinoma (HepG-2); assay: MTT assay, HepG-2; assay type: cell-based, human; settings: for antitumor impact on HepG-2: compared with DOX
Source text: as §4, §5

[13] = tested on: Mammary gland (MCF-7); assay: MTT assay, MCF-7; assay type: cell-based, human; settings: for IC50: Homo sapiens, MCF7, 48 h, read-out: Anti-cancer activity MCF-7 (IC50), MTT, 48 h; for antitumor impact on MCF-7: MTT, 48 h, compared with DOX
Source text: as §4, §5

[14] = Homo sapiens, HepG2, 48 h, read-out: Anti-cancer activity HepG-2 (IC50), MTT, 48 h

Row | SMILES | melting point [°C] | cytotoxic effect on WI-38 normal cells [8] | DPPH scavenging [5] | IC50 [10] [nM] | antitumor impact on Caco-2 [10] | ABTS scavenging [7] | biocidal effect against bacterial and fungal strains [11] | IC50 [12, 14] [µM] | antitumor impact on HepG-2 ([12]; MTT, 48 h) | IC50 [13] [nM] | antitumor impact on MCF-7 [13] | also measured
1 | CCOP(=O)(OCC)C(Nc1ncc(Cl)cc1Cl)c1c(O)ccc2ccccc12 (stereo not drawn) [Compound 3d, Diethyl (((3,5-dichloropyridin-2-yl)amino)(2-hydroxynaphthalen-1-yl)methyl)phosphonate] | 145 to 147 | no cytotoxic effects; also recorded: without any toxic effects |  |  |  |  |  |  |  |  |  | activity index C. albicans [1]: 81.5%; activity index A. flavus [2]: 72%; activity index B. subtilis [3]: 52.2%; activity index E. coli [4]: 42.3%; IC50 [5]: 20.04 ± 0.14 µM; activity index S. aureus [6]: 62.5%; IC50 [7]: 29.14 ± 0.18 µM; activity index P. aeruginosa [9]: 60.9%
2 | CCOP(=O)(OCC)C(Nc1ncc(Cl)cc1Cl)c1ccsc1 (stereo not drawn) [Compound 3f, Diethyl (((3,5-dichloropyridin-2-yl)amino)(thiophen-3-yl)methyl)phosphonate] | 88 to 90 | without any toxic effects | moderate impact | 1700 | low effect | moderate impact | moderate |  |  |  |  | 
3 | CCOP(=O)(OCC)C(Nc1ncc(Cl)cc1Cl)c1ccc(N(C)C)cc1 (stereo not drawn) [Compound 3e, Diethyl (((3,5-dichloropyridin-2-yl)amino)(4-(dimethylamino)phenyl)methyl)phosphonate] | 70 to 72 |  | weak capacity |  | moderate to weak impact | weak capacity | weak | 3.1 | moderate to weak impact | 3400 | moderate to weak impact | 
4 | O=C1O[C@H]([C@@H](O)CO)C(O)=C1O [L-Ascorbic acid, reference compound] |  |  |  |  |  |  |  |  |  |  |  | IC50 [5]: 16.81 ± 0.1 µM; IC50 [7]: 29.47 ± 0.17 µM
5 | CCOP(=O)(OCC)C(Nc1ncc(Cl)cc1Cl)c1ccc(O)cc1 (stereo not drawn) [Compound 3b, Diethyl (((3,5-dichloropyridin-2-yl)amino)(4-hydroxyphenyl)methyl)phosphonate] | 56 to 58 |  | weak capacity |  |  | weak capacity | weak | 66.8 ± 3.5 |  |  |  | 
6 | CCOP(=O)(OCC)C(Nc1ncc(Cl)cc1Cl)c1ccccc1OC (stereo not drawn) [Compound 3c, Diethyl (((3,5-dichloropyridin-2-yl)amino)(2-methoxyphenyl)methyl)phosphonate] | 73 to 75 |  | weak capacity | 2300 | moderate to weak impact | weak capacity | moderate |  | moderate to weak impact | 2100 | moderate to weak impact | 
7 | COc1cccc2c1C(=O)c1c(O)c3c(c(O)c1C2=O)C[C@@](O)(C(=O)CO)C[C@@H]3O[C@H]1C[C@H](N)[C@H](O)[C@H](C)O1 [DOX, reference compound] |  | highly toxic effects |  |  |  |  |  |  |  |  |  | IC50 ([12]; MTT, 48 h, read-out: Anti-cancer activity HepG-2 (IC50)): 6.72 ± 0.5 µM; IC50 [8]: 6.72 ± 0.5 µM
8 | CCOP(=O)(OCC)C(Nc1ncc(Cl)cc1Cl)c1ccc(O)c(OC)c1 (stereo not drawn) [Compound 3a, Diethyl(((3,5-dichloropyridin-2-yl)amino)(4-hydroxy-3-methoxyphenyl)methyl)phosphonate] | 66 to 68 | without any toxic effects | moderate impact | 3300 | low effect | moderate impact | moderate | 17.9 ± 1.3 |  |  |  | 
9 | CCOP(=O)(OCC)C(Nc1ncc(Cl)cc1Cl)c1ccccc1O (stereo not drawn) [Compound 3g, Diethyl (((3,5-dichloropyridin-2-yl)amino)(2-hydroxyphenyl)methyl)phosphonate] | 100 to 102 |  | weak capacity | 3000 | moderate to weak impact | weak capacity | weak | 2.4 | moderate to weak impact | 2600 | moderate to weak impact | 
